Test results: patent US6197751A, “Thymosin α1 promotes tissue repair, angiogenesis and cell migration” (The United States of America as represented by the …, priority 1998, dated 2001)
Ends that are not written are not given here.

Assays:
[1] = tested on: rats; experiment: Full thickness punch biopsy wound healing; assay type: in vivo; conditions: for reepithelization of the wound / collagen production (Masson's trichrome) / histology of dermis near dermal and epidermal junction: 8 day punch wounds; for wound healing compared to untreated wounds: rats
Experimental: Six full thickness 8 mm punch biopsy wounds were made on the dorsal surface of rats as previously reported (Bhartiya et al., J. Cell. Physiol. 150:312, 1992; Sihhu et al., J. Cell. Physiol. 169:108, 1996) and Tα1 was given topically at the time of wounding (5 μg in 50 μl) and again after 48 hr. Controls for the topical treatment received identical amounts of saline at the time of wounding and at 48 hr. Three rats in each group also received intraperitoneal injections at the time of wounding (60 μg in 300 μl) and again every other day. Controls for these animals received identical amounts of saline i.p. on the same injection schedule. At days 8 and 9 post-wounding, tissue was collected and fixed in 10% buffered formalin (i.p. n=18 samples; topical n=9 samples). The samples were sectioned and stained with H&E and Masson's Trichrome (American Histolabs, Gaithersburg, Md.).

[2] = tested on: human coronary artery endothelial cells; experiment: Boyden chamber migration, coronary artery endothelial cells; assay type: cell-based; conditions: for average number of cells that migrated ± SEM: HCAEC
Experimental: (§1) Human umbilical vein endothelial cells (HUVECs) were isolated from freshly delivered cords according to Jaffe et al. (J. Clin. Invest. 52: 2745, 1973) and grown on Nunclon dishes (Nunc, Denmark) in RPMI 1640 (Life Technologies, Gaithersburg, Md.) supplemented with 20% bovine calf serum (Hyclone Laboratories, Logan Utah), 100 U/ml penicillin/streptomycin (Life Technologies, Gaithersburg, Md.), 50 μg/ml gentamycin (Life Technologies, Gaithersburg, Md.), 2.7 μg/ml amphotericin B (fungizone)(Life Technologies, Gaithersburg, Md.), 5 U/ml sodium heparin (Fisher Scientific, Pittsburgh, Pa.) and 200 μg/ml endothelial cell growth supplement (ECGS) (Collaborative Research, Bedford, Mass.). Cells between passage 3 and 5 were used for all experiments. Human coronary artery endothelial cells (HCAECs) were grown on Nunclon dishes in the HUVEC media. Foreskin fibroblasts (Ffs) were grown in DMEM supplemented with 10% fetal bovine serum (Hyclone) on Falcon (Becton Dickinson, N.J.) dishes. HT1080 cells (human fibrosarcoma cell line) were grown in Falcon flasks in DMEM supplemented with 10% fetal bovine serum. Neutrophils were freshly isolated from buffy coats as previously reported (Kibbey et al., J. Cell Phys. 160:185, 1994). Human aortic smooth muscle cells (AOSMCs) were grown in smooth muscle cell media (Clonetics, San Diego, Calif.) on Nunclon dishes.
(§2) Several cell types were tested to determine if the migratory stimulation observed with Tα1 was specific. […] HUVEC migration assays were carried out in Boyden chambers using 12 ,m pore PVP free filters coated with either a 0.1 mg/ml or 0.05 mg/ml solution of collagen IV as previously reported (Malinda et al., FASEB J. 11:474, 1997). Each condition was assayed in triplicate wells at least three times unless indicated. HCAECs, AOSMCs, FFs, HT1080 cells and neutrophils were cultured or isolated and assayed for migration as previously reported (Malinda et al., FASEB J. 11:474, 1997).

[3] = tested on: HUVECs; experiment: Tube formation assay on Matrigel; assay type: cell-based, human
Experimental: Migration and differentiation during angiogenesis can be studied in vitro using Matrigel, a basement membrane matrix on which HUVECs undergo capillary-like tube formation (Grant et al., J. Cell. Physiol. 153: 614, 1992; Kubota et al., J. Cell Biol. 107: 1589, 1988). The tube formation assay was performed according to Grant et al. (J. Cell. Physiol. 153:614, 1992) with the following modifications. Twenty-four well Nunclon plates were coated with 320 μl of Matrigel (10 mg/ml) and incubated at 37° C. for 30 min to promote gelling. 30,000 HUVECs were resuspended in growth media and added to each well with 1, 10, 100 and 1000 ng of synthetic Tα1, 20 and 200 μg/ml ECGS (a bovine brain extract that contains aFGF and bFGF and acts as a positive control) or media alone. The final serum concentrations were 10% or 5%. After 18 h, plates were fixed with Diff-Quik (Baxter Healthcare Corporation, McGraw Park, Ill.) and the length of the tubes was measured using an Olympus CK2 microscope with a 2× objective connected to a Javelin CCTV camera with a 3.3× coupler and NIH Image 1.57 software. Three random measurements of each of four wells at each culture condition were measured. Each experiment was repeated at least three times.

[4] = tested on: foreskin fibroblasts; experiment: Boyden chamber migration, foreskin fibroblasts; assay type: cell-based; conditions: for average number of cells that migrated ± SEM: FF
Experimental: as §1, §2

[5] = tested on: HUVEC; experiment: HUVEC migration in Boyden chamber assays; assay type: cell-based, human
Experimental: as §2

[6] = tested on: HUVEC; experiment: In vitro "scratch" wound closure assay; assay type: cell-based, human; conditions: media alone 1%
Experimental: During angiogenesis the cells may be presented with a constant level of Tα1. The "scratch" wound closure assay was used to assess the potential effects of constant doses of Tα1 on cell migration. Confluent monolayers were "scratch" wounded using the tip of a universal blue pipette tip and rinsed with PBS. Tα1 (1, 10, 100, and 1000 ng/ml) or ECGS (200 μg/ml) was added to the wells in fresh media lacking ECGS but containing 10 mM thymidine to inhibit cell proliferation (Malinda et al., FASEB J. 11: 474, 1997). Antibody inhibition experiments were carried out as described above by wounding the cell monolayer and then adding either anti-Tα1 polyclonal antibody (1/25, 1/50 dilution) or pre-immune serum (1/25 dilution), or fresh media to the plate.

[7] = tested on: HT1080 cells (human fibrosarcoma cell line); experiment: Boyden chamber migration, HT1080 cells; assay type: cell-based
Experimental: as §1, §2

[8] = tested on: Neutrophils; experiment: Boyden chamber migration, neutrophils; assay type: cell-based; conditions: for average number of cells that migrated ± SEM: Neutrophils
Experimental: as §1, §2

[9] = tested on: Monocytes; experiment: Boyden chamber migration, monocytes; assay type: cell-based; conditions: for average number of cells that migrated ± SEM: Monocytes
Experimental: [The procedure below names another cell line; the source lists this cell line under the same test.] as §2

[10] = tested on: human aortic smooth muscle cells; experiment: Boyden chamber migration, aortic smooth muscle cells; assay type: cell-based; conditions: for average number of cells that migrated ± SEM: AOSMC
Experimental: as §1, §2

[11] = tested on: C57Bl/6N female mice; experiment: Subcutaneous Matrigel plug assay; assay type: in vivo
Experimental: Since Tα1 enhanced HUVEC migration in vitro, experiments were performed to determine if Tα1 promoted cell migration and vessel formation in vivo. Endothelial cells invade and form vessels in Matrigel plugs containing angiogenic factors (Kibbey et al., J. Cell Phys. 160:185, 1994; Passaniti et al., Lab. Invest. 67: 519, 1992). […] Three random fields were collected and analyzed per plug in each of three experiments. […] Cells migrate into the plug from the area closest to the skin forming vessels (FIG. 5). Plugs containing Tα1 (FIGS. 5C and 5D) show many more cells than in the Matrigel alone (FIG. 5A). Cell morphology was similar to those in plugs containing 10 ng/ml of the positive control ECGS (FIG. 5B).

Molecule: thymosin α1 (SDAAVDTSSEITTKDLKEKKEVVEEAEN; not fully specified; ends and bridges not checked; UniProt P06454 2-29, looked up) [Tα1, 28 amino acid peptide which results from the cleavage of the N-terminal region of prothymosin α1]
- reepithelization of the wound ([1]; intraperitoneal on alternate days 60 μg/300 μl): Complete reepithelization
- wound healing compared to untreated wounds ([1]; intraperitoneal, 60 μg in 300 μl every other day): significantly accelerated wound healing
- collagen production (Masson's trichrome) ([1]; intraperitoneal): enhanced collagen production
- histology of dermis near dermal and epidermal junction ([1]; intraperitoneal): capillary ingrowth in granulation tissue and hypercellular dermis
- reepithelization of the wound ([1]; topical 5 μg/50 μl): complete reepithelization of the wound with 2-3 layers of thick epidermis
- wound healing compared to untreated wounds ([1]; topical, 5 μg in 50 μl at wounding and after 48 hr): significantly accelerated wound healing
- collagen production (Masson's trichrome) ([1]; topical): enhanced collagen production
- histology of dermis near dermal and epidermal junction ([1]; topical): capillary ingrowth in granulation tissue and hypercellular dermis
- increase in migration over media alone ([2]; 1000 ng of Tα1): 2 fold
- migration ([2]; 1-100 ng doses): Significant migration
- average number of cells that migrated ± SEM ([2]; Thymosin α1 1 ng/ml): 14 ± 0.3
- average number of cells that migrated ± SEM ([2]; Thymosin α1 10 ng/ml): 16 ± 0.5
- average number of cells that migrated ± SEM ([2]; Thymosin α1 100 ng/ml): 18 ± 0.4
- average number of cells that migrated ± SEM ([2]; Thymosin α1 1000 ng/ml): 21 ± 0.4
- tube formation ([3]; 1 or 10 ng/ml Tα1, 5% serum): did not form tubes
- tube formation ([3]; 100 and 1000 ng/ml Tα1, 5% serum): formed highly organized tubes
- tube formation vs control cells ([3]; 100 or 1000 ng/ml Tα1, 10% serum): formed more tubes than control cells
- average length of tubes ([3]; 100 or 1000 ng/ml Tα1, 10% serum, 18 h, media alone 208 μm): 316-324 μm
- average number of cells that migrated ± SEM ([4]; Thymosin α1 1 ng/ml): 5 ± 0.4
- average number of cells that migrated ± SEM ([4]; Thymosin α1 10 ng/ml): 5 ± 0.4
- average number of cells that migrated ± SEM ([4]; Thymosin α1 100 ng/ml): 4.8 ± 0.7
- average number of cells that migrated ± SEM ([4]; Thymosin α1 1000 ng/ml): 5.2 ± 0.5
- migration toward Tα1 ([4]; Foreskin fibroblasts): did not demonstrate any significant migration
- increase in HUVEC migration ([5]; Tα1 in the lower wells, filters coated with collagen IV): 3-6 fold
- checkerboard assay, chemoattraction vs chemokinesis ([5]; increasing Tα1 in lower well vs in upper and lower wells): More cells migrated along the concentration gradient of Tα1 in the lower well
- wound closure ([6]; 100 ng/ml Tα1, 2 h): 7%
- wound closure ([6]; 1000 ng/ml Tα1, 2 h after wounding): 14%
- average number of cells that migrated ± SEM ([7]; HT1080, Thymosin α1 1 ng/ml): 2.4 ± 0.8
- average number of cells that migrated ± SEM ([7]; HT1080, Thymosin α1 10 ng/ml): 1.8 ± 0.4
- average number of cells that migrated ± SEM ([7]; HT1080, Thymosin α1 100 ng/ml): 1.3 ± 0.7
- average number of cells that migrated ± SEM ([7]; HT1080, Thymosin α1 1000 ng/ml): 0.9 ± 0.4
- migration toward Tα1 ([7]; HT1080 fibrosarcoma cells): did not demonstrate any significant migration
- average number of cells that migrated ± SEM ([8]; Thymosin α1 1 ng/ml): 138.7
- average number of cells that migrated ± SEM ([8]; Thymosin α1 10 ng/ml): 138.7 ± 20
- average number of cells that migrated ± SEM ([8]; Thymosin α1 100 ng/ml): 149.3 ± 13.5
- average number of cells that migrated ± SEM ([8]; Thymosin α1 1000 ng/ml): 149.3 ± 27
- migration toward Tα1 ([8]; neutrophils): did not demonstrate any significant migration
- Monocyte migration ([9]; 100 ng/ml): appeared to be inhibited
- Monocyte migration ([9]; 1000 ng/ml of Tα1): increased
- average number of cells that migrated ± SEM ([9]; Thymosin α1 100 ng/ml): 20 ± 5.4
- average number of cells that migrated ± SEM ([9]; Thymosin α1 1000 ng/ml): 80 ± 7.6
- average number of cells that migrated ± SEM ([10]; Thymosin α1 1 ng/ml): 1 ± 0.3
- average number of cells that migrated ± SEM ([10]; Thymosin α1 10 ng/ml): 1 ± 0.4
- average number of cells that migrated ± SEM ([10]; Thymosin α1 100 ng/ml): 0.5 ± 0.5
- average number of cells that migrated ± SEM ([10]; Thymosin α1 1000 ng/ml): 1 ± 0.4
- migration toward Tα1 ([10]; human aortic smooth muscle cells): did not demonstrate any significant migration
- cell migration into plugs ([11]; 1 μg/ml and 500 μg/ml): a decrease in migration was observed
- cell migration and angiogenesis in vivo vs Matrigel alone ([11]; 5 μg/ml of Tα1): always significantly higher than Matrigel alone

Molecule: basic fibroblast growth factor [bFGF, reference compound]
- average number of cells that migrated ± SEM ([4]; positive control 10 ng/ml): 12.3 ± 0.3

Molecule: FMLP [reference compound]
- average number of cells that migrated ± SEM ([8]; positive control 10^-7 M): 1404.7 ± 58.2
- average number of cells that migrated ± SEM ([9]; positive control 10^-7 M): 74 ± 2.1

Molecule: laminin [LN, reference compound]
- average number of cells that migrated ± SEM ([7]; HT1080, positive control 1 ug/ml): 661.2 ± 37
- average number of cells that migrated ± SEM ([7]; HT1080, positive control 5 ug/ml): 1136 ± 70.3

B1: PDGF-BB: platelet derived growth factor B form, positive control (protein, UniProt P01127 82-190, looked up)
Platelet-derived growth …: SLGSLTIAEPAMIAECKTRTEVFEISRRLIDRTNANFLVWPPCVEVQRCSGCCNNRNVQCRPTQVQLRPVQVRKIEIVRKKPIFKKATVTLEDHLACKCETVAAARPVT
- average number of cells that migrated ± SEM ([10]; positive control 10 ng/ml): 36 ± 4.5
